Data on 23 molecules can be found in US20080070867A1, “2-Imidazolone and 2-Imidazolidinone Heterocyclic Inhibitors of Tyrosine Phosphatases” (Metabasis Therapeutics, Inc., priority 2005, published 2008).

This experiment addresses T1, Human recombinant PTP-1B (Homo sapiens, UniProt P18031).
T1 construct: Human recombinant PTP-1B, containing amino acids 1-321, fused to GST enzyme; GST (glutathione S-transferase)
T1 sequence (P18031 1-321): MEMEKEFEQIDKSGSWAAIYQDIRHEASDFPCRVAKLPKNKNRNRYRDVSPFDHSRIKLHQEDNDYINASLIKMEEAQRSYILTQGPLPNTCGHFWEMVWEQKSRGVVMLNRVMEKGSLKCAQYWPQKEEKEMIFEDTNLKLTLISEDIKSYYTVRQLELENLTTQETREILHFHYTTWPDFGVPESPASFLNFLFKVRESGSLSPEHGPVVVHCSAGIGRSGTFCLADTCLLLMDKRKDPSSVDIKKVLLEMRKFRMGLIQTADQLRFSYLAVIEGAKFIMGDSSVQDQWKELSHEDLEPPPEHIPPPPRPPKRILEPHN
The experiment in a line: Assay for PTP-1B Activity (pNPP substrate). Format: biochemical. The note with it: human recombinant PTP-1B (1-321) GST fusion, 2 mM pNPP, pH 7.4, 30° C., 20 min; read-out: Activity Code (IC50 range). The essentials: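 GST-fused human PTP-1B (aa 1-321) hydrolysed 2 mM pNPP in 50 mM HEPES pH 7.4, 100 mM NaCl, 2 mM EDTA, 3 mM DTT for 20 min at 30 °C, after a 2 min compound premix. K2CO3 stopped the reaction, with pNP read at 405 nm. Initial rate was plotted against inhibitor concentration.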
For the molecule `CC(C)(C)C(=O)OCOP(=O)(O)C(F)(F)c1ccc(Cn2c(-c3ccc(C#N)cc3)cn(Cc3ccccc3)c2=O)cc1Br` [Compound 56, 2,2-Dimethyl-propionic acid ({4-[3-benzyl-5-(4-cyano-phenyl)-2-oxo-2,3-dihydro-imidazol-1-ylmethyl]-2-bromo-phenyl}-difluoro-methyl)-hydroxy-phosphinoyloxymethyl ester], the IC50 was in the range of 2500 to 25000 nM.

Take `CC(C)(C)C(=O)OCOP(=O)(OCOC(=O)C(C)(C)C)C(F)(F)c1ccc(Cn2c(-c3ccc(C#N)cc3)cn(Cc3ccccc3)c2=O)cc1Br` [Compound 57, 2,2-Dimethyl-propionic acid ({4-[3-benzyl-5-(4-cyano-phenyl)-2-oxo-2,3-dihydro-imidazol-1-ylmethyl]-2-bromo-phenyl}-difluoro-methyl)-(2,2-dimethyl-propionyloxy-methoxy)-phosphinoyloxymethyl ester]: the IC50 is greater than 25000 nM.

For `CS(=O)(=O)c1ccc(Cn2cc(-c3ccccc3)n(Cc3ccc(C(F)(F)P(=O)(O)O)c(Br)c3)c2=O)cc1` [Compound 58, ({2-Bromo-4-[3-(4-methanesulfonyl-benzyl)-2-oxo-5-phenyl-2,3-dihydro-imidazol-1-ylmethyl]-phenyl}-difluoro-methyl)-phosphonic acid], the IC50 lay in the range of 250 to 2500 nM.

With `CC(C)OC(=O)OC(C)OC(=O)c1ccc(-c2cn(Cc3ccccc3)c(=O)n2Cc2ccc(C(F)(F)P(=O)(O)OC(C)OC(=O)OC(C)C)c(Br)c2)cc1` (centres unmarked) [Compound 59, 4-[1-Benzyl-3-(3-bromo-4-{difluoro-[hydroxy-(1-isopropoxy-carbonyloxy-ethoxy)-phosphoryl]-methyl}-benzyl)-2-oxo-2,3-dihydro-1H-imidazol-4-yl]-benzoic acid 1-isopropoxy-carbonyloxy-ethyl ester], the IC50 fell in the range of 2500 to 25000 nM.

As to `COc1cccc(Cn2ccn(Cc3ccc(C(F)(F)P(=O)(O)O)c(Br)c3)c2=O)c1` [Compound 60, ({2-Bromo-4-[3-(3-methoxy-benzyl)-2-oxo-2,3-dihydro-imidazol-1-ylmethyl]-phenyl}-difluoro-methyl)-phosphonic acid], the IC50 fell in the range of 2500 to 25000 nM.

With `CCOC(=O)c1ccc(-n2ccn(Cc3ccc(C(F)(F)P(=O)(O)O)c(Br)c3)c2=O)cc1` [Compound 61, 4-{3-[3-Bromo-4-(difluoro-phosphono-methyl)-benzyl]-2-oxo-2,3-dihydro-imidazol-1-yl}-benzoic acid ethyl ester], the IC50 was in the range of 250 to 2500 nM.

As for `COC(=O)c1cccc(-c2cn(C3CC3)c(=O)n2Cc2ccc(C(F)(F)P(=O)(O)O)c(Br)c2)c1` [Compound 62, 3-{3-[3-Bromo-4-(difluoro-phosphono-methyl)-benzyl]-1-cyclopropyl-2-oxo-2,3-dihydro-1H-imidazol-4-yl}-benzoic acid methyl ester], the IC50 fell in the range of 250 to 2500 nM.

For `O=C(O)c1cccc(-c2cn(C3CC3)c(=O)n2Cc2ccc(C(F)(F)P(=O)(O)O)c(Br)c2)c1` [Compound 63, 3-{3-[3-Bromo-4-(difluoro-phosphono-methyl)-benzyl]-1-cyclopropyl-2-oxo-2,3-dihydro-1H-imidazol-4-yl}-benzoic acid], the IC50 fell in the range of 250 to 2500 nM.

As for `CC(C)(C)C(=O)OCOP(=O)(O)C(F)(F)c1ccc(Cn2c(-c3ccc(S(C)(=O)=O)cc3)c[nH]c2=O)cc1Br` [Compound 64, 2,2-Dimethyl-propionic acid ({2-bromo-4-[5-(4-methanesulfonyl-phenyl)-2-oxo-2,3-dihydro-imidazol-1-ylmethyl]-phenyl}-difluoro-methyl)-hydroxy phosphinoyloxymethyl ester], the IC50 lay within 2500 to 25000 nM.

On to `CC(C)OC(=O)OC(C)OP(=O)(O)C(F)(F)c1ccc(Cn2c(-c3ccc(S(C)(=O)=O)cc3)c[nH]c2=O)cc1Br` (centres unmarked) [Compound 65, ({2-Bromo-4-[5-(4-methanesulfonyl-phenyl)-2-oxo-2,3-dihydro-imidazol-1-ylmethyl]phenyl}-difluoro-methyl) phosphonic acid mono-(1-isopropoxy-carbonyloxy-ethyl) ester], for which the IC50 is 2500 to 25000 nM.

Turning to `CCOC(=O)n1cc(-c2ccc(C(=O)OC)cc2)n(Cc2ccc(C(F)(F)P(=O)(O)OCOC(=O)C(C)(C)C)c(Br)c2)c1=O` [Compound 66, 3-(3-Bromo-4-{[(2,2-dimethyl-propionyloxy-methoxy)-hydroxy-phosphoryl]-difluoro-methyl}-benzyl)-4-(4-methoxycarbonyl-phenyl)-2-oxo-2,3-dihydro-imidazole-1-carboxylic acid ethyl ester], the IC50 is greater than 25000 nM.

Take `COC(=O)c1ccc(-c2cn(Cc3ccc(C(F)(F)P(=O)(O)O)c(Br)c3)c(=O)n2Cc2ccccc2)cc1` [Compound 67, 4-{3-Benzyl-1-[3-bromo-4-(difluoro-phosphono-methyl)-benzyl]-2-oxo-2,3-dihydro-1H-imidazol-4-yl}-benzoic acid methyl ester]: the IC50 fell in the range of 250 to 2500 nM.

As to `O=C(O)c1ccc(-c2cn(Cc3ccc(C(F)(F)P(=O)(O)O)c(Br)c3)c(=O)n2Cc2ccccc2)cc1` [Compound 68, 4-{3-Benzyl-1-[3-bromo-4-(difluoro-phosphono-methyl)-benzyl]-2-oxo-2,3-dihydro-1H-imidazol-4-yl}-benzoic acid], the IC50 fell in the range of 250 to 2500 nM.

Regarding `Cn1cc(-c2ccc(S(C)(=O)=O)cc2)n(Cc2ccc(C(F)(F)P(=O)(O)OCOC(=O)C(C)(C)C)c(Br)c2)c1=O` [Compound 69, 2,2-Dimethyl-propionic acid ({2-bromo-4-[5-(4-methanesulfonyl-phenyl)-3-methyl-2-oxo-2,3-dihydro-imidazol-1-ylmethyl]-phenyl}-difluoro-methyl)-hydroxy-phosphinoyloxymethyl ester], the IC50 was in the range of 2500 to 25000 nM.

In the case of `CC(C)OC(=O)OC(C)OP(=O)(O)C(F)(F)c1ccc(Cn2c(-c3ccc(S(C)(=O)=O)cc3)cn(C)c2=O)cc1Br` (centres unmarked) [Compound 70, ({2-Bromo-4-[5-(4-methanesulfonyl-phenyl)-3-methyl-2-oxo-2,3-dihydro-imidazol-1-ylmethyl]-phenyl}-difluoro-methyl)-phosphonic acid mono-(1-isopropoxy-carbonyloxy-ethyl) ester], the IC50 was greater than 25000 nM.

For the molecule `O=c1n(Cc2ccccc2)ccn1Cc1ccc(C(F)(F)P(=O)(O)O)c(Br)c1` [Compound 71, {[4-(3-Benzyl-2-oxo-2,3-dihydro-imidazol-1-ylmethyl)-2-bromo-phenyl]-difluoro-methyl}-phosphonic acid], the IC50 fell in the range of 2500 to 25000 nM.

On to `CC(C)OC(=O)OC(C)OP(=O)(O)C(F)(F)c1ccc(Cn2c(-c3ccc(Cl)cc3)cn(Cc3ccccc3)c2=O)cc1Br` (centres unmarked) [Compound 72, ({4-[3-Benzyl-5-(4-chloro-phenyl)-2-oxo-2,3-dihydro-imidazol-1-ylmethyl]-2-bromo-phenyl}-difluoro-methyl)-phosphonic acid mono-(1-isopropoxy-carbonyloxy-ethyl) ester], for which the half-maximal inhibitory concentration (IC50) was in the range of 2500 to 25000 nM.

Consider `CCOC(=O)C(C)(C)Oc1ccc(-c2cn(C3CC3)c(=O)n2Cc2ccc(C(F)(F)P(=O)(O)O)c(Br)c2)cc1` [Compound 73, 2-(4-{3-[3-Bromo-4-(difluoro-phosphono-methyl)-benzyl]-1-cyclopropyl-2-oxo-2,3-dihydro-1H-imidazol-4-yl}-phenoxy)-2-methyl-propionic acid ethyl ester], for which the IC50 lay within 100 to 249 nM.

On to `CC(C)(Oc1ccc(-c2cn(C3CC3)c(=O)n2Cc2ccc(C(F)(F)P(=O)(O)O)c(Br)c2)cc1)C(=O)O` [Compound 74, 2-(4-{3-[3-Bromo-4-(difluoro-phosphono-methyl)-benzyl]-1-cyclopropyl-2-oxo-2,3-dihydro-1H-imidazol-4-yl}-phenoxy)-2-methyl-propionic acid], for which the IC50 was less than 99 nM.

As for `CCOC(=O)n1cc(-c2ccc(C#N)cc2)n(Cc2ccc(C(F)(F)P(=O)(O)O)c(Br)c2)c1=O` [Compound 75, 3-[3-Bromo-4-(difluoro-phosphono-methyl)-benzyl]-4-(4-cyano-phenyl)-2-oxo-2,3-dihydro-imidazole-1-carboxylic acid ethyl ester], the 50% inhibitory concentration (IC50) lay in the range of 100 to 249 nM.

On to `CC(C)(C)C(=O)OCOP(=O)(O)C(F)(F)c1ccc(Cn2c(-c3ccc(S(C)(=O)=O)cc3)cn(Cc3ccccc3)c2=O)cc1Br` [Compound 76, 2,2-Dimethyl-propionic acid ({4-[3-benzyl-5-(4-methanesulfonyl-phenyl)-2-oxo-2,3-dihydro-imidazol-1-ylmethyl]-2-bromo-phenyl}-difluoro-methyl)-hydroxy-phosphinoyloxymethyl ester], for which the IC50 is 250 to 2500 nM.

Regarding `CC(C)(C)C(=O)OCOC(=O)COc1ccc(-c2cn(C3CC3)c(=O)n2Cc2ccc(C(F)(F)P(=O)(O)OCOC(=O)C(C)(C)C)c(Br)c2)cc1` [Compound 77, 2,2-Dimethyl-propionic acid 2-{4-[3-(3-bromo-4-{[(2,2-dimethyl-propionyloxy-methoxy)-hydroxy-phosphoryl]-difluoro-methyl}-benzyl)-1-cyclopropyl-2-oxo-2,3-dihydro-1H-imidazol-4-yl]-phenoxy}-acetoxymethyl ester], the IC50 was in the range of 250 to 2500 nM.

For the molecule `N#Cc1ccc(-c2c[nH]c(=O)n2Cc2ccc(C(F)(F)P(=O)(O)O)c(Br)c2)cc1` [Compound 78, ({2-Bromo-4-[5-(4-cyano-phenyl)-2-oxo-2,3-dihydro-imidazol-1-ylmethyl]-phenyl}-difluoro-methyl)-phosphonic acid], the IC50 was 100 to 249 nM.
